According to patent publication US20140371244A1, “METHOD FOR TREATING PROSTATE CANCER BY USE OF PHARMACEUTICAL COMPOSITION CONTAINING A3 ADENOSINE RECEPTOR AGONIST” (priority 2009, published 2014):

Experiments:
RAW 264.7 cells = assay: MTT assay, cytotoxicity in RAW 264.7 cells; assay type: cell-based, mouse; conditions: 20 μM (highest concentration)
Experimental: In order to example whether the iNOS production inhibitory effect is attributable to the toxicity of the sample itself (inventive composition, thio-Cl-IB-MECA), an MTT (3-(4,5-dimethylthiazol-2-yl)-2,5-diphenyltetrazolium bromide) assay was performed.

IL-1β = IL-1β gene and protein expression in LPS-stimulated RAW 264.7 cells; assay type: cell-based, mouse; conditions: 5, 10, 20 μM, LPS 1 μg/ml
Experimental: IL-1β is one of major factors involved in inflammation and functions to induce the expression of several genes related to inflammation and tissue injury. Thus, the effects of the inventive composition on the expressions of mRNA gene and protein of IL-1β were tested. Specifically, RAW 264.7 cells were pretreated with each of 20, 10 and 5 μM of the inventive composition (thio-Cl-IB-MECA) and treated with LPS (1 μg/ml) to induce inflammatory reactions, followed by culture for 4 hours. The RNA fraction was collected and cultured for 8 hours, and then the protein was collected and subjected to RT-PCR and Western blot.

[1] = system: Wnt signaling-related proteins; assay: PI-3 kinase / Wnt signaling proteins and β-catenin expression in LPS-stimulated RAW 264.7 cells; assay type: cell-based, mouse
Experimental: A test was carried out to examine the effects of the inventive composition on the expressions of PI-3 kinase (which influences the NF-κB signaling pathway) and Wnt signaling-related proteins in RAW 264.7 cells. Specifically, RAW 264.7 cells were treated with the inventive composition (20 μM thio-Cl-IB-MECA), and after 30 minutes, were stimulated by LPS. At intervals of 5, 15, 30 and 60 minutes after culture, proteins were extracted from all the cells, and the effects of the inventive composition on the expressions of the proteins were measured in comparison with those in the control group treated with only LPS.
In order to examine the intranuclear movement of β-catenin and the accumulation of β-catenin in the cytoplasm, RAW 264.7 cells were treated with each of 5, 10 and 20 μM of the inventive composition (thio-Cl-IB-MECA), and after 30 minutes, the cells were stimulated by LPS. After 1 hour of culture, the cells were collected and separated into a nuclear extract and a cytosol extract. The expressions of β-catenin protein in the cytosol and nuclear portions were analyzed by Western blot, and the results of the analysis are shown in FIG. 7b. […] When no LPS stimulation is applied, β-catenin is degraded by phosphorylation.

LNCaP = assay: Morphological change of LNCaP cells; assay type: cell-based, human; conditions: 40, 20 and 10 μM, 48 hours
Experimental: Each of LNCaP and PC-3 prostate cancer cell lines was treated with 40, 20 and 10 μM of thio-Cl-IB-MECA and cultured for 48 hours, and then the morphological change of the cells was observed.
Specifically, each type of the prostate cancer cells was diluted with 10% FBS (Fetal Bovine Serum)-containing medium to a density of 1.0×10^6 cells per 100 mm culture dish and cultured under the conditions of 37° C. and 5% CO2, followed by washing twice with PBS (Phosphate Buffered Saline). Thio-Cl-IB-MECA was diluted in 10% FBS-containing medium at required concentration, and then 10 ml of the culture medium prepared in the 100 mm culture dish was added thereto and incubated for a given time. The morphology of the cells was observed as a function of treatment time and concentration (FIGS. 11a and 11b).

LNCaP cells [2] = assay: Cell cycle analysis (FACS) in LNCaP cells; assay type: cell-based, human; conditions: 40, 20 and 10 μM, 48 hours
Experimental: (§1) Cells were treated with 40, 20 and 10 μM of thio-Cl-IB-MECA and cultured for 48 hours, and the cell cycle of the cells was analyzed by flow cytometer analysis (FACS). Specifically, cells were diluted with 10% FBS-containing medium to a density of 1.0×10^6 cells per 100 mm culture dish and cultured under the conditions of 37° C. and 5% CO2 for 24 hours, followed by washing twice with PBS. Thio-Cl-IB-MECA was diluted in 10% FBS-containing medium at required concentration, and then 10 ml of the culture medium prepared in the 100 mm culture dish was added thereto and cultured for a given time. The non-adherent cells and adherent cells in the cell medium were collected and washed twice with PBS, after which 500 μL of 100% cold methanol was added thereto and the cells were fixed at 4° C. The cells were washed twice with PBS and allowed to stand in RNase A-containing solution for 30 minutes, after which the cells were stained with propidium iodide (PI) buffer for 5 minutes. After removal of the PI buffer, the cells were transferred into a polystyrene round-bottom tube, and cell cycle analysis was performed by FACScalibur® flow cytometry.

PC-3 cells = assay: Cell cycle analysis (FACS) in PC-3 cells; assay type: cell-based, human; conditions: 40, 20 and 10 μM, 48 hours
Experimental: as §1

LNCaP cells [3] = assay: Western blot of cell cycle regulation-related proteins and Wnt signaling in LNCaP cells; assay type: cell-based, human
Experimental: A test was carried out to examine whether the inhibitory effects of thio-Cl-IB-MECA on the proliferation of LNCaP cells and PC-3 cells are attributable to regulation of the Wnt signaling pathway.
Specifically, each type of LNCaP cells and PC-3 cells was diluted with 10% FBS-containing medium to a density of 1.0×10^6 cells per 100 mm culture dish and cultured under the conditions of 37° C. and 5% CO2 for 24 hours, followed by washing twice with PBS. Thio-Cl-IB-MECA was diluted in 10% FBS-containing medium at required concentration, and then 10 ml of the culture medium prepared in the 100 mm culture dish was added thereto and cultured for a given period. The non-adherent cells and adherent cells in the cell medium were collected and washed twice with PBS, after which the cells were suspended in boiling cell lysis buffer and heated at 100° C. for 5 minutes. The cells were cooled and then stored at […], and the stored cells were thawed at 37° C. immediately before use in protein quantification and electrophoresis. Protein quantification was performed using the BCA method, and […] of protein was electrophoresed on 8-12% SDS-polyacrylamide gel at 150 V for 110 minutes. The gel at the desired site was cut and transferred to a PVDF (polyvinylidene fluoride) for 1 hour, and after which it was washed twice with PBST and stirred in blocking buffer at room temperature for 1 hour. Then, the membrane was washed three times with PBST for 5 minutes each time, after which primary antibody was diluted at a ratio of 1:1,000-1:2,000 with 3% skimmed milk/PBST, and it was sealed together with the membrane and incubated with stirring at 4° C. for 12 hours or more. The membrane was washed 2-3 times with PBST for 5 minutes each time, after which HRP-conjugated secondary antibody was diluted at a ratio of 1:1,500-1:2,000 and incubated with the membrane at room temperature for 2-3 hours. The membrane was washed three times with PBST for 5 minutes each time and treated with a Western blot substrate (WESTSAVE Up™), and the produced luminescence was examined using LAS-3000.

[4] = 20 μM, LPS stimulation, 5, 15, 30, 60 min

## CNC(=O)[C@H]1S[C@@H](n2cnc3c(NCc4cccc(I)c4)nc(Cl)nc32)[C@H](O)[C@@H]1O [thio-Cl-IB-MECA, 2-chloro-N^6-(3-iodobenzyl)-4′-thioadenosine-5′-N-methyluronamide]
RAW 264.7 cells
  viability of RAW 264.7 cells (MTT): 80%
IL-1β; RT-PCR
  expression of IL-1β gene: concentration-dependently inhibited
IL-1β; Western blot
  expression of IL-1β protein: concentration-dependently inhibited
[1]; [4]
  expression of p-AKT: also inhibited at 30 min and 60 min
  expression of p-GSK 3α/β: inhibited at 30 min and 60 min
[1]; 5, 10 and 20 μM, LPS, 1 hour
  expression of p-β-catenin: concentration-dependently inhibited
  expressions of β-catenin in the cytosol and nuclear portions: concentration-dependently inhibited
LNCaP
  number of the cells, LNCaP: decreased in a concentration-dependent manner
LNCaP cells [2]
  G1 phase of cell cycle, LNCaP: an increase in the G1 phase appeared
PC-3 cells
  G1 phase of cell cycle, PC-3: an increase in the G1 phase appeared
LNCaP cells [3]
  Wnt signaling pathway, LNCaP: inhibited the Wnt signaling pathway
  expression and RB phosphorylation of cyclin D, cyclin A, CDK4, c-myc and PCNA, LNCaP: inhibited the expression and RB phosphorylation
  expression of p53 and p27, LNCaP: increased the expression
